Test systems include DLD-1; DMS-273; HOP-18; KM-20L2; M19-MEL; RXF 631; SNB-78; LXFL 529; XF498.
Assay in all cases: NCI tumour cell line growth inhibition, 48 h

Molecules are shown by their SMILES.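 96-well plates; 48 h exposure; 5 concentrations. Endpoints by linear interpolation between flanking doses. Not reached: highest tested concentration assigned. Here, GI50 denotes the concentration required for 50% inhibition of growth.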 Activity calls are given as the source filed them. Rule as the data show it: active = GI50 up to about 1.1 µM and inactive = higher. Some results are limits rather than exact numbers.

In the case of `Cc1nc(-n2nc(-c3ccccc3)cc2-c2ccccc2)sc1C(=O)/C=C/c1ccccc1`, the GI50 with DLD-1, with DMS-273, with HOP-18, with KM-20L2, with M19-MEL and in the assay on RXF 631 was > 100 µM (inactive) each time. Besides, in the assay with SNB-78, the GI50 was > 100 µM (inactive).

As for `Oc1ccc(Cn2c(-c3ccc(O)cc3)nc3ccccc32)cc1`, the GI50 with DLD-1, in the assay with DMS-273, with KM-20L2, with LXFL 529, in the assay with M19-MEL and in the assay with RXF 631 was > 100 µM (inactive) in each case. Further, the GI50 in the assay with XF498 was > 100 µM (inactive).

On to `NNC(=O)C(=O)N/N=C(\CCCC(=O)Nc1ccc(Cl)cc1)CC(=O)c1ccc(F)cc1`, for which the GI50 in the assay with DLD-1 was > 100 µM (inactive); with HOP-18 it was 52.8 µM (inactive); in the assay with KM-20L2, 7.31 µM (inactive); with LXFL 529, 67.1 µM (inactive); in the assay on M19-MEL, 53.3 µM (inactive); in the assay with RXF 631, > 100 µM (inactive). Besides, the GI50 in the assay with SNB-78 and with XF498 was > 100 µM (inactive) throughout.

On to `O=C(Nc1ccc([N+](=O)[O-])cc1)C1C(=O)C(=O)N(c2ccc([N+](=O)[O-])cc2)C1=O` (stereo not given), for which the GI50 in the assay with DLD-1 was > 100 µM (inactive); in the assay on DMS-273, 11.6 µM (inactive); in the assay with HOP-18, > 100 µM (inactive); in the assay on KM-20L2 it was 97.3 µM (inactive); in the assay with LXFL 529, 17.7 µM (inactive); in the assay with RXF 631 it was > 100 µM (inactive). Also, in the assay with SNB-78, the GI50 was > 100 µM (inactive).

Take `CCOC(=O)c1cc2c(nc1N)-c1ncccc1CC2`: the GI50 with DLD-1 is 52.7 µM (inactive); in the assay with DMS-273, 43.5 µM (inactive); in the assay on HOP-18, > 100 µM (inactive); in the assay on KM-20L2, 37.2 µM (inactive); with LXFL 529, 50.7 µM (inactive); with M19-MEL, 89.5 µM (inactive). For the same molecule, the GI50 in the assay with RXF 631 and in the assay with SNB-78 was > 100 µM (inactive) each time.

For `O=C(c1cc2ccccc2o1)N(Cc1ccccc1)c1ccccc1`, the GI50 in the assay on DLD-1 was 22.8 µM (inactive); in the assay on DMS-273, 30.8 µM (inactive); in the assay on HOP-18, 30.5 µM (inactive); with KM-20L2 it was 17.3 µM (inactive); with LXFL 529, 30.8 µM (inactive); with M19-MEL, 21.7 µM (inactive). In addition, the figures for the GI50 in the assay on RXF 631, with SNB-78 and in the assay on XF498 were 26.9 µM (inactive), 63.1 µM (inactive) and 23.3 µM (inactive), respectively.

For `COC(=O)CCC(=O)Nc1cc(C)ccc1C`, the GI50 in the assay on DLD-1, in the assay with DMS-273, in the assay with HOP-18, in the assay on LXFL 529, in the assay with M19-MEL and with RXF 631 was > 100 µM (inactive) throughout. Moreover, the GI50 in the assay on SNB-78 and in the assay with XF498 was > 100 µM (inactive) each time.

Take `C/C(=N\NS(=O)(=O)c1ccc(C)cc1)C(CN(C)C)C(c1ccccc1)c1c(O)c2ccccc2oc1=O` (stereo not given): the GI50 in the assay with DLD-1, in the assay with HOP-18, in the assay on KM-20L2, in the assay on LXFL 529, in the assay with M19-MEL and in the assay with RXF 631 was > 100 µM (inactive) each time. Further, the GI50 in the assay with SNB-78 and in the assay with XF498 was > 100 µM (inactive) throughout.

Consider `CN1CCCNCCN(CCc2ccccn2)CCCN(C)CC1`, for which the GI50 is > 88.1 µM (inactive) in the assay with DLD-1; 27.8 µM (inactive) in the assay with DMS-273; > 100 µM (inactive) in the assay with HOP-18; > 100 µM (inactive) with KM-20L2; > 75.3 µM (inactive) with LXFL 529; > 59.4 µM (inactive) in the assay on M19-MEL. Also, the GI50 with RXF 631, in the assay on SNB-78 and in the assay with XF498 was > 100 µM (inactive) each time.

As to `CCN(CCCl)CCNc1c2ccccc2nc2ccc(OC)cc12`, the GI50 in the assay on DLD-1 was 0.46 µM (active); with DMS-273 it was 0.294 µM (active); with HOP-18 it was 2.7 µM (inactive); in the assay on KM-20L2, 0.448 µM (active); in the assay with LXFL 529, 0.237 µM (active); in the assay with M19-MEL it was 0.703 µM (active). The GI50 in the assay on RXF 631 is 0.425 µM (active); with SNB-78, 0.891 µM (active); with XF498, 0.891 µM (active).

For the origin of these results see ChEMBL document CHEMBL1201862, “PubChem BioAssay data set” (2004).
